Target: T1, human GPR40 (Homo sapiens, UniProt O14842)
T1 construct: expressed in transfected cells
Test: Inositol Phosphate Turnover (IP1) Assay
Assay type: cell-based
Conditions: HEK cells stably expressing human GPR40; CisBio IP-One kit; 60 minutes at 37 degrees; read-out: Human IP1 EC50
In short: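 HEK cells stably expressing GPR40, plated 16 h, then exposed to compound in stimulation buffer for 60 min at 37 °C. IP1 accumulation read by HTRF IP-One detection after 60 min at RT.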

T1 sequence (O14842 whole entry): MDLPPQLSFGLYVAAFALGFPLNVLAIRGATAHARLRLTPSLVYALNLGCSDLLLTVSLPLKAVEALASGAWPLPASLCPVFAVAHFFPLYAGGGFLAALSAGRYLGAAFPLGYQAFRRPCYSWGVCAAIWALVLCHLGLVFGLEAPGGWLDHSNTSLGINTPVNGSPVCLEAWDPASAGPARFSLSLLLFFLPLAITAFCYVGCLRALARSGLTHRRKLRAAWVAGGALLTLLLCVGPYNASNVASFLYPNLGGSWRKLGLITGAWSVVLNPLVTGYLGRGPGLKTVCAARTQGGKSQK

| EC50 [nM] | Compound |
| --- | --- |
| 12.1 | C[C@H](C(=O)O)[C@H](c1ccc2c(c1F)OC1(CC2)CCN([C@H](C)c2cc(C(F)(F)F)ccc2C(F)(F)F)CC1)C1CC1 [Example 6, (2S,3R)-3-(1′-((R)-1-(2,5-bis(trifluoromethyl)-phenyl)ethyl)-8-fluoro-spiro[chroman-2,4′-piperidin]-7-yl)-3-cyclo-propyl-2-methyl-propanoic acid] |
| 2.14 | CC[C@@H](c1cc(C(F)(F)F)ccc1C(F)(F)F)N1CCC2(CCc3ccc([C@H](C4CC4)[C@H](C)C(=O)O)cc3O2)CC1 [Example 7, sodium (2S,3R)-3-(1′-((S)-1-(2,5-bis(trifluoro-methyl)phenyl)propyl)-spiro[chroman-2,4′-piperidin]-7-yl)-3-cyclo-propyl-2-methyl-propanoic acid] |
| 20.6 | C[C@H](C(=O)O)[C@H](c1ccc2c(c1F)OC1(CC2)CCN(Cc2cc(C(F)(F)F)ccc2C(F)(F)F)CC1)C1CC1 [Example 8, (2S,3R)-3-(1′-(2,5-bis-(trifluoromethyl)benzyl)-8-fluoro-spiro[chroman-2,4′-piperidin]-7-yl)-3-cyclopropyl-2-methyl-propanoic acid] |
| 13.5 | C[C@H](C(=O)O)[C@H](c1ccc2c(c1F)OC1(CC2)CCN(Cc2cc(Cl)ccc2OC(F)F)CC1)C1CC1 [Example 20, (2S,3R)-3-(1′-(5-chloro-2-(difluoromethoxy)benzyl)-8-fluorospiro[chroman-2,4′-piperidin]-7-yl)-3-cyclopropyl-2-methylpropanoic Acid] |
| 3.66 | CC(c1cc(Cl)ccc1OC(F)(F)F)N1CCC2(CCc3ccc([C@H](C4CC4)[C@H](C)C(=O)O)c(F)c3O2)CC1 (stereo partly drawn) [Example 21, (2S,3R)-3-(1′-(1-(5-chloro-2-(trifluoromethoxy)phenyl)ethyl)-8-fluorospiro[chroman-2,4′-piperidin]-7-yl)-3-cyclopropyl-2-methylpropanoic Acid] |
| 38.3 | C[C@H](C(=O)O)[C@H](c1ccc2c(c1)OC1(CC2)CCN(c2cccnc2C(F)(F)F)CC1)C1CC1 [Example 22, sodium (2S,3R)-3-cyclopropyl-2-methyl-3-(1′-(2-(trifluoromethyl)pyridin-3-yl)spiro[chroman-2,4′-piperidin]-7-yl)propanoate] |
| 14.3 | C[C@H](C(=O)O)[C@H](c1ccc2c(c1)OC1(CC2)CCN(S(=O)(=O)c2cc(C(F)(F)F)ccc2C(F)(F)F)CC1)C1CC1 [Example 23, (2S,3R)-3-(1′-((2,5-bis(trifluoromethyl)phenyl)sulfonyl)spiro[chroman-2,4′-piperidin]-7-yl)-3-cyclopropyl-2-methylpropanoic Acid] |
| 11.2 | C[C@H](C(=O)O)[C@H](c1ccc2c(c1)OC1(CC2)CCN(Cc2cc(C(F)(F)F)cc(Cl)c2F)CC1)C1CC1 [Example 24, (2S,3R)-3-(1′-(3-chloro-2-fluoro-5-(trifluoromethyl)benzyl)spiro[chroman-2,4′-piperidin]-7-yl)-3-cyclopropyl-2-methylpropanoic Acid] |
| 18.3 | C[C@H](C(=O)O)[C@H](c1ccc2c(c1)OC1(CC2)CCN(S(=O)(=O)c2cc(C(F)(F)F)ccc2Cl)CC1)C1CC1 [Example 25, (2S,3R)-3-(1′-((2-chloro-5-(trifluoromethyl)phenyl)sulfonyl)spiro[chroman-2,4′-piperidin]-7-yl)-3-cyclopropyl-2-methylpropanoic Acid] |
| 97.8 | C[C@H](C(=O)O)[C@H](c1ccc2c(c1)OC1(CC2)CCN(S(=O)(=O)c2ccc(C(F)(F)F)cc2Cl)CC1)C1CC1 [Example 26, (2S,3R)-3-(1′-((2-chloro-4-(trifluoromethyl)-phenyl)sulfonyl)spiro [chroman-2,4′-piperidin]-7-yl)-3-cyclopropyl-2-methylpropanoic acid] |
| 49.5 | C[C@H](C(=O)O)[C@H](c1ccc2c(c1)OC1(CC2)CCN(Cc2cc(C(F)(F)F)ccc2F)CC1)C1CC1 [Example 27, (2S,3R)-3-cyclopropyl-3-(1′-(2-fluoro-5-(trifluoromethyl)benzyl)spiro-[chroman-2,4′-piperidin]-7-yl)-2-methylpropanoic Acid] |
| 177 | C[C@H](C(=O)O)[C@H](c1ccc2c(c1)OC1(CC2)CCN(Cc2nc(C(F)(F)F)ccc2Cl)CC1)C1CC1 [Example 32, (2S,3R)-3-(1′-((3-chloro-6-(trifluoromethyl)-pyridin-2-yl)methyl)-spiro-[chroman-2,4′-piperidin]-7-yl)-3-cyclopropyl-2-methylpropanoic acid] |
| 5.79 | C[C@H](C(=O)O)[C@H](c1ccc2c(c1)OC1(CC2)CCN(c2ccccc2C(F)(F)F)CC1)C1CC1 [Example 35, sodium (2S,3R)-3-cyclopropyl-2-methyl-3-(1′-(2-(trifluoromethyl)phenyl)-spiro[chroman-2,4′-piperidin]-7-yl)propanoate] |
| 4.78 | C[C@H](C(=O)O)[C@H](c1ccc2c(c1)OC1(CC2)CCN(c2cccc3c2c(C(F)(F)F)nn3C)CC1)C1CC1 [Example 36, (2S,3R)-3-cyclopropyl-2-methyl-3-(1′-(1-methyl-3-(trifluoromethyl)-1H-indazol-4-yl)spiro[chroman-2,4′-piperidin]-7-yl)propanoic Acid] |
| 683 | C[C@H](C(=O)O)[C@H](c1ccc2c(c1)OC1(CC2)CCN(c2ccc3c(C(F)(F)F)nn(C)c3c2)CC1)C1CC1 [Example 37, (2S,3R)-3-cyclopropyl-2-methyl-3-(1′-(1-methyl-3-(trifluoromethyl)-1H-indazol-6-yl)spiro[chroman-2,4′-piperidin]-7-yl)-propanoic acid] |
| 506 | C[C@H](C(=O)O)[C@H](c1ccc2c(c1)OC1(CC2)CCN(c2ccc3c(c2)c(C(F)(F)F)nn3C)CC1)C1CC1 [Example 38, (2S,3R)-3-cyclopropyl-2-methyl-3-(1′-(1-methyl-3-(trifluoromethyl)-1H-indazol-5-yl)spiro[chroman-2,4′-piperidin]-7-yl)propanoic acid] |
| 566 | C[C@H](C(=O)O)[C@H](c1ccc2c(c1)OC1(CC2)CCN(c2cncc(C(F)(F)F)c2)CC1)C1CC1 [Example 39, (2S,3R)-3-cyclopropyl-2-methyl-3-(1′-(5-(trifluoromethyl)pyridin-3-yl)Spiro [chroman-2,4′-piperidin]-7-yl)propanoic Acid] |
| 167 | C[C@H](C(=O)O)[C@H](c1ccc2c(c1)OC1(CC2)CCN(c2ccnc(C(F)(F)F)c2)CC1)C1CC1 [Example 40, (2S,3R)-3-cyclopropyl-2-methyl-3-(1′-(2-(trifluoromethyl)pyridin-4-yl)spiro-[chroman-2,4′-piperidin]-7-yl)propanoic Acid] |
| 12.9 | C[C@H](C(=O)O)[C@H](c1ccc2c(c1)OC1(CC2)CCN(c2cccc(C(F)(F)F)c2)CC1)C1CC1 [Example 41, (2S,3R)-3-cyclopropyl-2-methyl-3-(1′-(3-(trifluoromethyl)phenyl)spiro[chroman-2,4′-piperidin]-7-yl)propanoic acid] |
| 148 | C[C@H](C(=O)O)[C@H](c1ccc2c(c1)OC1(CC2)CCN(S(=O)(=O)c2ccc(Cl)cc2Cl)CC1)C1CC1 [Example 45] |
| 22.6 | C[C@H](C(=O)O)[C@H](c1ccc2c(c1)OC1(CC2)CCN(S(=O)(=O)c2cc(Cl)ccc2Cl)CC1)C1CC1 [Example 46, (2S,3R)-3-cyclopropyl-3-(1′-((2,5-dichloro-phenyl)sulfonyl)spiro [chroman-2,4′-piperidin]-7-yl)-2-methyl-propanoic acid] |

Source: US10968232B2 (Merck Sharp & Dohme Corp., priority 2016, dated 2021)
